Laboratory results published in patent publication US9481670B2, “Triazine compounds” (Sphaera Pharma PTE. Ltd., priority 2011, dated 2016).

What was measured:
human tumor xenografts = settings: mouse, in vivo; cited from earlier work
PI3K alpha = target: T1, PI3K alpha (Homo sapiens, UniProt P42336); assay: P110 Alpha TR-FRET Assay (PI3K alpha kinase assay, HTRF Transcreener ADP Assay); type: biochemical; settings: PI3K (WT)
T1 construct: purchased Millipore Upstate
Procedure, shortened: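 Enzyme (50 ng) and compound were preincubated 20 min in HEPES pH 7.5 buffer containing MgCl2, DTT and vanadate before 10 μM ATP plus 5 μM PIP2 substrate was added for 20 min. ADP produced was quantified by TR-FRET (ADP-d2, anti-ADP cryptate, 1 h).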

[1] = Pharmacokinetic study, oral dosing, plasma concentration by LC-MS/MS; type: in vivo; settings: female swiss mice, fasted overnight, oral 3 mg/kg in PEG 400, plasma
Experimental: For pharmacokinetic study female swiss mice were used. The swiss mice weighing 25-30 g, fasted overnight, were orally dosed at 3 mg/kg body weight of compound in PEG 400. Blood samples (40 μl) were collected from each mouse by retro-orbital bleeding at 0, 0.16, 0.5, 1, 2, 4, 6 and 8 h after dosing into the tubes containing heparin as an anticoagulant. The samples were stored in ice and within 1 h after collection samples were centrifuged at 10000 RPM at 4° C. Plasma was collected and stored at −80° C. until analyis. The concentration of compounds in plasma were determined by liquid chromatography-tandem mass spectrometry (LC-MS/MS).
The protein precipitation method was used to extract the compounds. Acetonitrile was added to plasma, vortexed and centrifuged at 10000 RPM at 4° C. The supenatent was collected and injected onto the column. A CTC HTC PAL auto sampler (LEAP Technologies) linked to a Shimadzu SCL-10A VP HTC controller with LC-10AD pumps (Shimadzu), coupled with a Sciex API 3000 triple quadrupole mass spectrometer were used for the LC-MS/MS analysis. Some compounds as per the present invention are represented in the table below, were tested and their PK values are reported in Table 2.

T1 sequence (P42336 whole entry): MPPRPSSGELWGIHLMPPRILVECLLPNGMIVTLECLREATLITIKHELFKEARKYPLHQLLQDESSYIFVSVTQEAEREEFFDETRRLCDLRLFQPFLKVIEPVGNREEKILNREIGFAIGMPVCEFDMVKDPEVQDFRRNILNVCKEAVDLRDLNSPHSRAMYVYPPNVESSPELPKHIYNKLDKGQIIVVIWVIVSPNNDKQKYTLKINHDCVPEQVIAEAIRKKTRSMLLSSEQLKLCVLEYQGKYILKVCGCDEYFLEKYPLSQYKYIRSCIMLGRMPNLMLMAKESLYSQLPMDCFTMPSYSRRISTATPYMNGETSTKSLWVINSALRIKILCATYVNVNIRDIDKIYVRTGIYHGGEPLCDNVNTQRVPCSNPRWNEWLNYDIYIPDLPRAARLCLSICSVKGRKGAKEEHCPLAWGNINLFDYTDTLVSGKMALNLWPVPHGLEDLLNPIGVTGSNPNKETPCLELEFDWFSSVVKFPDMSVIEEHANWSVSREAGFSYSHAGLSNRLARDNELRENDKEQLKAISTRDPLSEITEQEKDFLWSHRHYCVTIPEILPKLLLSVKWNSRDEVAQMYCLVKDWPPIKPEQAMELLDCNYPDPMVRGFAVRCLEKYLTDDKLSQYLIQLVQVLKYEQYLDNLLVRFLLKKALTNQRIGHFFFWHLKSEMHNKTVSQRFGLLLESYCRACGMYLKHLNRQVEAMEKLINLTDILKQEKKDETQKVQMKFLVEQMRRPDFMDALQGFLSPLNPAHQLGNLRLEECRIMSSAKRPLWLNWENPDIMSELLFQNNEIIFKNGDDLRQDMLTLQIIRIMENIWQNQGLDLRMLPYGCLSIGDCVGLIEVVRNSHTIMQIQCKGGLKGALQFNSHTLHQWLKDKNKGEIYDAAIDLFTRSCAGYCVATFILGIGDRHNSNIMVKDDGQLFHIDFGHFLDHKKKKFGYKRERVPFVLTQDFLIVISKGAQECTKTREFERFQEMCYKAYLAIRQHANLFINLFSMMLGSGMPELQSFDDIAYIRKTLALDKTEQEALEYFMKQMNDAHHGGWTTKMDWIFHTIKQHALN
T1 sequence (P27986 whole entry partner): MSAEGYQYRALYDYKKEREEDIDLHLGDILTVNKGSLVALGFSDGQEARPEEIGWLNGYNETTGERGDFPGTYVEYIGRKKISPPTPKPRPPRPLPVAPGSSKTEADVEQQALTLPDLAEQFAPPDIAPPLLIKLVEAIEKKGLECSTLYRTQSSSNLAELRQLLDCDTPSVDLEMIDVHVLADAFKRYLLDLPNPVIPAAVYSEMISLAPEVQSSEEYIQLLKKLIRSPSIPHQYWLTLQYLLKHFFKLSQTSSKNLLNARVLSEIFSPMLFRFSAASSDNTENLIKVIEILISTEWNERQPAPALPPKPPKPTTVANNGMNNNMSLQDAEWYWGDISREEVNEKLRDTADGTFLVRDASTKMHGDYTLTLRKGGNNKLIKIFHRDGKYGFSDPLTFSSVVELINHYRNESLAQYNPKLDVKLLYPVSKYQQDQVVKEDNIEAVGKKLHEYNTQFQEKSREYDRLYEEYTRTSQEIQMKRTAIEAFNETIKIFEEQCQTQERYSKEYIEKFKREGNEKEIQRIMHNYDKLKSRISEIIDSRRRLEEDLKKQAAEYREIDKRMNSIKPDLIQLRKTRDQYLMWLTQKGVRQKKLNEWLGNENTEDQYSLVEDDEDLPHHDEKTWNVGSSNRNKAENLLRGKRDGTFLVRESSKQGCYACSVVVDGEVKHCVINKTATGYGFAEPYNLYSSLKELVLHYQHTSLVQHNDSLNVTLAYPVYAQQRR

Row | IC50 (PI3K alpha) [µM] | AUC [1] [nM-hr] | Cmax [1] [nM] | Elimination t1/2 [1] [h] | Tmax [1] [h] | Structure (SMILES) | tolerability (human tumor xenografts)
1 |  |  |  |  |  | O=c1cc(N2CCOCC2)oc2c(-c3ccccc3)cccc12 [LY294002] | well-tolerated
2 | < 5 | 1618 | 535 | 3.15 | 0.83 | CN(C)C(=O)N1CCC(Oc2nc(-c3cccc4[nH]ncc34)nc(N3CCOCC3)n2)CC1 [Compound 1126, 4-14-{[4-1-(1H-indazol-4-yl)-6-5-(morpholin-4-yl)-1,3,5-triazin-2-yl]oxy}-N,N-dimethylpiperidine-1-carboxamide] | 
